Data reported in patent US10577337B2, “Compositions and methods of treatment with prodrugs of tizoxanide, an analogue or salt thereof” (Romark Laboratories, L.C., priority 2014, dated 2020).

Columns and labels:
[1] = Aqueous solubility; format: physicochemical
[2] = humans, cited from earlier work

| aqueous solubility, descriptive term [1] | solubility ([1]; aqueous) [µg/mL] | Structure (SMILES) | effect of food on absorption ([2]; administered with food) | half-life of tizoxanide in plasma ([2]; after oral nitazoxanide or nitazoxanide plus tizoxanide) |
| --- | --- | --- | --- | --- |
| practically insoluble | < 100 | CC(=O)Oc1ccccc1C(=O)Nc1ncc([N+](=O)[O-])s1 [nitazoxanide, 2-(acetolyloxy)-N-(5-nitro-2-thiazolyl)benzamide] | approximately doubled with food |  |
|  |  | O=C(Nc1ncc([N+](=O)[O-])s1)c1ccccc1O [tizoxanide] |  | approximately 1.5 hours |
